# Reference: BindingDB's records for doi:10.1124/jpet.102.047092 (Case Western Reserve University, 2003)
# pKi: −log10 of the molar value.
# Columns and labels:
# D(3) dopamine receptor = D(3) dopamine receptor (Homo sapiens, UniProt P35462)
# [1] = target: T1, 5-hydroxytryptamine receptor 1A (Homo sapiens, UniProt P08908)
# T1 sequence (P08908 whole entry): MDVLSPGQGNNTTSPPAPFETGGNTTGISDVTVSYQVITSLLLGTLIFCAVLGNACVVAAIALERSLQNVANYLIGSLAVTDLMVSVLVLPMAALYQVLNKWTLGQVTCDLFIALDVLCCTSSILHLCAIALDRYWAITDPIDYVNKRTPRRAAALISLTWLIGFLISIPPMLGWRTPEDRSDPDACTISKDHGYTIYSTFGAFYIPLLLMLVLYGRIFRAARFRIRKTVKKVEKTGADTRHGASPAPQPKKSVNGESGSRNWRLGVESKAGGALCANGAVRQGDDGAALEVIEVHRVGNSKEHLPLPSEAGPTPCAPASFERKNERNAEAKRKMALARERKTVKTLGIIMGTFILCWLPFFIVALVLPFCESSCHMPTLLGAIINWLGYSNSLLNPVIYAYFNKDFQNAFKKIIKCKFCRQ
# [2] = target: Sodium-dependent serotonin transporter (Homo sapiens, UniProt P31645)
# Histamine H4 receptor = Histamine H4 receptor (Homo sapiens, UniProt Q9H3N8)
# Histamine H2 receptor = Histamine H2 receptor (Homo sapiens, UniProt P25021)
# [3] = target: 5-hydroxytryptamine receptor 1B (Homo sapiens, UniProt P28222)
# [4] = target: Neuronal acetylcholine receptor subunit alpha-4 (Homo sapiens, UniProt P43681)
# [5] = target: Neuronal acetylcholine receptor subunit alpha-4 (Rattus norvegicus, UniProt P09483)
# D(1A) dopamine receptor = D(1A) dopamine receptor (Homo sapiens, UniProt P21728)
# [6] = target: T2, 5-hydroxytryptamine receptor 2C (Rattus norvegicus, UniProt P08909)
# T2 sequence (P08909 whole entry): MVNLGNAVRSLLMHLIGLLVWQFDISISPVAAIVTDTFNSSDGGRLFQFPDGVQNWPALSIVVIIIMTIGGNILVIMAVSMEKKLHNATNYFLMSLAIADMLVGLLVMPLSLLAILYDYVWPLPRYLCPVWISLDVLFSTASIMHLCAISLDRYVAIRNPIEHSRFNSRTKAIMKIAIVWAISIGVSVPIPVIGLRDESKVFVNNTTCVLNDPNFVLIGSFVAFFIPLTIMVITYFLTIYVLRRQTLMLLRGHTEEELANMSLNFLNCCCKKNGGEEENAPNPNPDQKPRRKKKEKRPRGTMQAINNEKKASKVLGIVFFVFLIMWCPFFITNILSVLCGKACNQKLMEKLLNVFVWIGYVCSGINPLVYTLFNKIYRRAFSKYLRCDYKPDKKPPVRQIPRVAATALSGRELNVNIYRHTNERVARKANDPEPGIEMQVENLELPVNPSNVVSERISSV
# [7] = target: T3, Muscarinic acetylcholine receptor M1 (Homo sapiens, UniProt P11229)
# T3 sequence (P11229 whole entry): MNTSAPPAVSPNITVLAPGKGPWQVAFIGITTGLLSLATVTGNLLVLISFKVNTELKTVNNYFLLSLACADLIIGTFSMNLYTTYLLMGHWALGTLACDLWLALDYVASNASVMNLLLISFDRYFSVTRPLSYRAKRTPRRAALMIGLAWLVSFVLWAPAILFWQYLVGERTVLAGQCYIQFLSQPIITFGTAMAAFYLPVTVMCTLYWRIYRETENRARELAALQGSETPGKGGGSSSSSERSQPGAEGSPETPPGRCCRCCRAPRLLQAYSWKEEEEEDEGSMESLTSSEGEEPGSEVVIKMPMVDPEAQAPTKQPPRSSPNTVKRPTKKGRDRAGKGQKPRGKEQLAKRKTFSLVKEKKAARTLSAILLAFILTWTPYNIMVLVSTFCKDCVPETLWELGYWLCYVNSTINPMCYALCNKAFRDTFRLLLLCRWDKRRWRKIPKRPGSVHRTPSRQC
# [8] = target: Voltage-dependent L-type calcium channel subunit alpha-1C (Rattus norvegicus, UniProt P22002)
# [9] = target: Neuronal acetylcholine receptor subunit alpha-2 (Homo sapiens, UniProt Q15822)
# [10] = target: Neuronal acetylcholine receptor subunit alpha-3 (Homo sapiens, UniProt P32297)
# Histamine H1 receptor = Histamine H1 receptor (Rattus norvegicus, UniProt P31390)
# Nischarin = Nischarin (Rattus norvegicus, UniProt Q4G017)
# Oxytocin receptor = target: T4, Oxytocin receptor (Homo sapiens, UniProt P30559)
# T4 sequence (P30559 whole entry): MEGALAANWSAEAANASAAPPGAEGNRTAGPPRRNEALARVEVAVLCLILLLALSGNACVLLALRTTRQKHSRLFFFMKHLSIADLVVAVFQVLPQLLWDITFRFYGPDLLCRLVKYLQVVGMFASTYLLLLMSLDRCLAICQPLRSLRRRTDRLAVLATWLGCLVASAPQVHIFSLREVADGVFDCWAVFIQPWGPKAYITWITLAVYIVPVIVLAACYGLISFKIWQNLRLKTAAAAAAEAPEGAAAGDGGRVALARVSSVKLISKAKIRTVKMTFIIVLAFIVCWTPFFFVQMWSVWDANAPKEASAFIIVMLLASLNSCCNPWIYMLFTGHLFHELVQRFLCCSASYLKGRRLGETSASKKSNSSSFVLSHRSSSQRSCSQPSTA
# Neuronal acetylcholine receptor subunit alpha-4 (Homo sapiens, UniProt P43681), sequence (P43681 whole entry): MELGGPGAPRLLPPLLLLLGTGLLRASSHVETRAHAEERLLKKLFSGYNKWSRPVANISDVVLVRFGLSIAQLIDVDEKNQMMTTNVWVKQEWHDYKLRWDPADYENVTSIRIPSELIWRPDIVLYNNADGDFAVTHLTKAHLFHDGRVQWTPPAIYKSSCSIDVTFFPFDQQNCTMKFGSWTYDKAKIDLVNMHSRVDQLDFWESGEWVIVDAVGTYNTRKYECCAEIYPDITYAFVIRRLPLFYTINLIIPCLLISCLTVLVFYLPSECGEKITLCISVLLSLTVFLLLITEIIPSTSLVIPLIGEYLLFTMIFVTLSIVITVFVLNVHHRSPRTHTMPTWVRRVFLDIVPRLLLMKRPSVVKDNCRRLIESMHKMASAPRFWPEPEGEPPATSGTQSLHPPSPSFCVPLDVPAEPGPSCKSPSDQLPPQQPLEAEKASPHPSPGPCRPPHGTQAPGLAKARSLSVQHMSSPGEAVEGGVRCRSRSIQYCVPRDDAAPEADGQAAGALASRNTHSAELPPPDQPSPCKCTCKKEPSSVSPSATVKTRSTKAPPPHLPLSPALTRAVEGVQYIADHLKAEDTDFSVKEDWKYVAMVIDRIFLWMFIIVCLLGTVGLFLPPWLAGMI
# Neuronal acetylcholine receptor subunit alpha-2, sequence (Q15822 whole entry): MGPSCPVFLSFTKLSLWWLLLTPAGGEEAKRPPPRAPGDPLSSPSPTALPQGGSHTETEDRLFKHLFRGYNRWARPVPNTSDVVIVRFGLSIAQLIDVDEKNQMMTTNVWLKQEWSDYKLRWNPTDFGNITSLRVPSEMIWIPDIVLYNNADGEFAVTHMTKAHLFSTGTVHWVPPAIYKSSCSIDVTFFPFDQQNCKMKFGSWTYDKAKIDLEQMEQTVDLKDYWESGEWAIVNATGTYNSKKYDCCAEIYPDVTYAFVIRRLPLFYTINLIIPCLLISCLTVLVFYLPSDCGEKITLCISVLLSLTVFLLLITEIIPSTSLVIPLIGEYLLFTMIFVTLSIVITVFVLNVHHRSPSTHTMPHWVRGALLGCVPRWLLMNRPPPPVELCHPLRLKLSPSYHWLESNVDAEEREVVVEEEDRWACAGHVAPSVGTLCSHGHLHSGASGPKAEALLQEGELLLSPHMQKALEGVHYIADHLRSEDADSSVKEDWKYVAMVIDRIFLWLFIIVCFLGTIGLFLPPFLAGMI
# Voltage-dependent L-type calcium channel subunit alpha-1C, sequence (P22002 whole entry): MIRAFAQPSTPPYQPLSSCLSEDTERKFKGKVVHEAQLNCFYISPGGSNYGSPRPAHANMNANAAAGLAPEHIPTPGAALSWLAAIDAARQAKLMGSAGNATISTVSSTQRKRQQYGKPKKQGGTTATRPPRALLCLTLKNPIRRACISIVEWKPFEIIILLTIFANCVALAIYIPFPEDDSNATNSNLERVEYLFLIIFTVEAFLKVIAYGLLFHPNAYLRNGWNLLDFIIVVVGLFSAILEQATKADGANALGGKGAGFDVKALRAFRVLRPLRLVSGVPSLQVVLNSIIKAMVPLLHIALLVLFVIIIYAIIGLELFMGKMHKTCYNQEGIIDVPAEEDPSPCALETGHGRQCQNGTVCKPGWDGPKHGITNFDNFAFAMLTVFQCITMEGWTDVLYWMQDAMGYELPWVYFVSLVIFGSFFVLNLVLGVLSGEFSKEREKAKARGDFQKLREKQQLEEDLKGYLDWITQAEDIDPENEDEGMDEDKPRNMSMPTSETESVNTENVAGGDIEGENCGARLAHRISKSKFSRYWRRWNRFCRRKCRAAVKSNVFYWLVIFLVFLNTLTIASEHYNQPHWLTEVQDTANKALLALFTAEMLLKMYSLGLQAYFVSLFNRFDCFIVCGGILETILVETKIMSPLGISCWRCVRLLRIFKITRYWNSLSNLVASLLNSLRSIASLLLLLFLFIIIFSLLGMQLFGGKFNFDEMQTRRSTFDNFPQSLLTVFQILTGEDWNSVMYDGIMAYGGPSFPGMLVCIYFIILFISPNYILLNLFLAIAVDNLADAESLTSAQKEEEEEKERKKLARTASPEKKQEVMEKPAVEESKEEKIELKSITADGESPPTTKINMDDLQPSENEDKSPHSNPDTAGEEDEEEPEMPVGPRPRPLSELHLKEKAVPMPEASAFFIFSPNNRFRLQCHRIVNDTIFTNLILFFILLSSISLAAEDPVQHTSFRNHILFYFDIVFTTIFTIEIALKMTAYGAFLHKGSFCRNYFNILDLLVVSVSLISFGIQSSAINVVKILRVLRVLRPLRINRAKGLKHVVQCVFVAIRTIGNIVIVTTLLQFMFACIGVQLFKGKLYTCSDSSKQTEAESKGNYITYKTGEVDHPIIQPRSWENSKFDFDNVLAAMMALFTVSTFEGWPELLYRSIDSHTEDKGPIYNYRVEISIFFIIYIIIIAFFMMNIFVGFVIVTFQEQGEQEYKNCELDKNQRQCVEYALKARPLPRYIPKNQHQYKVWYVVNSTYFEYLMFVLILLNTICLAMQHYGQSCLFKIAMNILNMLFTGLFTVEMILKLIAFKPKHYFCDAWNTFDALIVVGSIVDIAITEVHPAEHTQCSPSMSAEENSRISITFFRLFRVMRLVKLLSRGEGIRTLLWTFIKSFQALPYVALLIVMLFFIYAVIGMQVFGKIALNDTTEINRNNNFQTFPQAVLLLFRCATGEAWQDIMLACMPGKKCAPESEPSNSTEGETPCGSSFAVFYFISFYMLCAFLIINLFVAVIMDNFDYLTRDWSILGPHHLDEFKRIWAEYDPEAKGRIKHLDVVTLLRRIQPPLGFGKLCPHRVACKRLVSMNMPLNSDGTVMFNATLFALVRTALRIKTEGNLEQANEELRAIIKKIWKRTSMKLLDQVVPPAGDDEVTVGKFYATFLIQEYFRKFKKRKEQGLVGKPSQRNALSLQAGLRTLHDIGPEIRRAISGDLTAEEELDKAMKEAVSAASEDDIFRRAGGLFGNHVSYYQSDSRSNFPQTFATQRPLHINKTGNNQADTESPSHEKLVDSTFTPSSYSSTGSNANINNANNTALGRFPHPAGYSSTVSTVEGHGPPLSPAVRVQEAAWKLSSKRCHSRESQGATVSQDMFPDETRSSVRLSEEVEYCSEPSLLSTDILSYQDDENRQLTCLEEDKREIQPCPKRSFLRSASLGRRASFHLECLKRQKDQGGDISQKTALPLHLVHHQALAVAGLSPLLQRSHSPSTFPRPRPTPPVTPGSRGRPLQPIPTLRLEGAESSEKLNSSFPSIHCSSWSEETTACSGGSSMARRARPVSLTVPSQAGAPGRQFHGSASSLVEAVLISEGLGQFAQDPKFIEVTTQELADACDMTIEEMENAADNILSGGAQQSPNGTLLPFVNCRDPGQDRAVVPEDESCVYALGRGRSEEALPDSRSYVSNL
# Histamine H1 receptor, sequence (P31390 whole entry): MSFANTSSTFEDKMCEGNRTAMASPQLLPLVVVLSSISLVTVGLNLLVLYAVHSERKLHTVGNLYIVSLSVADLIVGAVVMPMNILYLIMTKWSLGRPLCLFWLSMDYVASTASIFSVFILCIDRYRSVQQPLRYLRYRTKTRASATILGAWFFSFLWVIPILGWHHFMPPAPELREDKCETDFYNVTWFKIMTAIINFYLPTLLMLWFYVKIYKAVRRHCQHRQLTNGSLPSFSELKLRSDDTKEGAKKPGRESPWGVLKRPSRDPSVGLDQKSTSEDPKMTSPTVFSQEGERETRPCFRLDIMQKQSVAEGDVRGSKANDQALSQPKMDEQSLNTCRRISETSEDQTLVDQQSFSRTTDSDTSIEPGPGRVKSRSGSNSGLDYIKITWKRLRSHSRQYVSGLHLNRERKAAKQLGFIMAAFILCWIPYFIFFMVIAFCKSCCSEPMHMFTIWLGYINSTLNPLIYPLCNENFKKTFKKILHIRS
# Sodium-dependent serotonin transporter, sequence (P31645 whole entry): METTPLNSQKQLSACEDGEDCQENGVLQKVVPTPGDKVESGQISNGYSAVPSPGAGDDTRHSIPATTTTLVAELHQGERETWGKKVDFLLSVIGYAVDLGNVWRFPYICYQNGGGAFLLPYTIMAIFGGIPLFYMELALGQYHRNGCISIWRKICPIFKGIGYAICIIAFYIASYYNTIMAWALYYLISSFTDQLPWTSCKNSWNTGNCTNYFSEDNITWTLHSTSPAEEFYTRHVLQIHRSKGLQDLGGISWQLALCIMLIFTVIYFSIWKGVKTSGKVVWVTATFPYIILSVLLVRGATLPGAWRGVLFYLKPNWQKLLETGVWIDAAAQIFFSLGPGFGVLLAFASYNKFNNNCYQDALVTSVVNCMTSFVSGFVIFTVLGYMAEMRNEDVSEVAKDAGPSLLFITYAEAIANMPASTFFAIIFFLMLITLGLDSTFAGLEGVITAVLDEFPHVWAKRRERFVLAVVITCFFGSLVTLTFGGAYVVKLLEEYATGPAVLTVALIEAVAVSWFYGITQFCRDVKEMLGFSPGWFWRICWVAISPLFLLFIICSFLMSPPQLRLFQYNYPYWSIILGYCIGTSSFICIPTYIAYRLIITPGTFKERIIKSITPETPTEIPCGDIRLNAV
# Histamine H2 receptor, sequence (P25021 whole entry): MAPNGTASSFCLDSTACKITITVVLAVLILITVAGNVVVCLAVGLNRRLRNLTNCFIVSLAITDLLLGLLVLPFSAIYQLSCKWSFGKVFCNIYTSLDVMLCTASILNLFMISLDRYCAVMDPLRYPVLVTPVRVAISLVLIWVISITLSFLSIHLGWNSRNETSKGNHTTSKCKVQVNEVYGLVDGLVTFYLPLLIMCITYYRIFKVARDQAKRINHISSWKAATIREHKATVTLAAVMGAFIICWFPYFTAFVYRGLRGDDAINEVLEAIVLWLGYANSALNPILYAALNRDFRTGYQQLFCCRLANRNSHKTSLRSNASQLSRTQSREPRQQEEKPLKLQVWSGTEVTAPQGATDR
pKi (D(3) dopamine receptor),pKi [1],pKi [2],pKi (Histamine H4 receptor),pKi (Histamine H2 receptor),pKi [3],pKi [4],pKi [5],pKi (D(1A) dopamine receptor),pKi [6],pKi [7],pKi [8],pKi [9],pKi [10],pKi (Histamine H1 receptor),pKi (Nischarin),pKi (Oxytocin receptor),Compound
< 5.00,< 5.00,< 5.00,< 5.00,< 5.00,< 5.00,< 5.00,< 5.00,< 5.00,< 5.00,< 5.00,< 5.00,< 5.00,< 5.00,< 5.00,< 5.00,< 5.00,N[C@H](CS(=O)(=O)O)C(=O)O [L-cysteic acid]
< 5.00,< 5.00,< 5.00,< 5.00,< 5.00,< 5.00,< 5.00,< 5.00,< 5.00,< 5.00,< 5.00,< 5.00,< 5.00,< 5.00,< 5.00,< 5.00,< 5.00,NC(CSSCC(N)C(=O)O)C(=O)O (stereo unspecified) [CAS_595]
< 5.00,< 5.00,< 5.00,< 5.00,< 5.00,< 5.00,< 5.00,< 5.00,< 5.00,< 5.00,< 5.00,< 5.00,< 5.00,< 5.00,< 5.00,,< 5.00,N[C@@H](CCS)C(=O)O (racemic) [CAS_778]
< 5.00,< 5.00,< 5.00,< 5.00,< 5.00,< 5.00,< 5.00,< 5.00,< 5.00,< 5.00,< 5.00,< 5.00,< 5.00,< 5.00,< 5.00,< 5.00,< 5.00,CSCC[C@@H](N)C(=O)O [CAS_6137]
< 5.00,< 5.00,< 5.00,< 5.00,< 5.00,< 5.00,< 5.00,< 5.00,< 5.00,< 5.00,< 5.00,< 5.00,< 5.00,< 5.00,< 5.00,< 5.00,< 5.00,N[C@H](CCS(=O)(=O)O)C(=O)O [D-homocysteic acid]
< 5.00,< 5.00,< 5.00,< 5.00,< 5.00,< 5.00,< 5.00,< 5.00,< 5.00,< 5.00,< 5.00,< 5.00,< 5.00,< 5.00,< 5.00,< 5.00,< 5.00,NC(CS(=O)O)C(=O)O (stereo unspecified) [CAS_109]
< 5.00,< 5.00,< 5.00,< 5.00,< 5.00,< 5.00,< 5.00,< 5.00,< 5.00,< 5.00,< 5.00,< 5.00,< 5.00,< 5.00,< 5.00,< 5.00,< 5.00,N[C@H](CCS(=O)O)C(=O)O [D-homocysteine sulfinic acid]
< 5.00,< 5.00,< 5.00,< 5.00,< 5.00,< 5.00,< 5.00,< 5.00,< 5.00,< 5.00,< 5.00,< 5.00,< 5.00,< 5.00,< 5.00,< 5.00,< 5.00,N[C@@H](CS)C(=O)O [CAS_5862]

Compound,pKi (D(3) dopamine receptor),pKi [1],pKi [2],pKi (Histamine H4 receptor),pKi (Histamine H2 receptor),pKi [3],pKi [4],pKi [5],pKi (D(1A) dopamine receptor),pKi [6],pKi [7],pKi [8],pKi [9],pKi [10],pKi (Histamine H1 receptor),pKi (Nischarin),pKi (Oxytocin receptor)
N[C@H]1CCSC1=O [NSC_134505],,< 5.00,< 5.00,< 5.00,< 5.00,,< 5.00,< 5.00,< 5.00,< 5.00,< 5.00,< 5.00,< 5.00,< 5.00,,< 5.00,
N[C@@H](CCS(=O)O)C(=O)O [L-homocysteine sulfinic acid],< 5.00,< 5.00,,< 5.00,< 5.00,< 5.00,< 5.00,< 5.00,< 5.00,< 5.00,< 5.00,< 5.00,< 5.00,< 5.00,< 5.00,< 5.00,< 5.00
N[C@@H]1CCSC1=O [D-homocysteine thiolactone],,< 5.00,< 5.00,< 5.00,< 5.00,,< 5.00,< 5.00,< 5.00,< 5.00,< 5.00,< 5.00,< 5.00,< 5.00,,< 5.00,
N[C@@H](CCS(=O)(=O)O)C(=O)O (racemic),< 5.00,< 5.00,< 5.00,,,< 5.00,,,< 5.00,< 5.00,< 5.00,,,,< 5.00,,< 5.00
